Reference: article PMC4704022, “Insights on FXR selective modulation. Speculation on bile acid chemical space in the discovery of potent and selective agonists” (Scientific Reports, 2016)
“Also recorded” adds a separate entry of the source.

Legend:
FXR = molecular target: T1, FXR (Homo sapiens, UniProt Q96RI1); assay: FXR transactivation luciferase reporter assay in transfected HepG2 cells; assay type: cell-based
T1 construct: expressed in transfected cells; host or cells: HepG2
T1 sequence (Q96RI1 1-486): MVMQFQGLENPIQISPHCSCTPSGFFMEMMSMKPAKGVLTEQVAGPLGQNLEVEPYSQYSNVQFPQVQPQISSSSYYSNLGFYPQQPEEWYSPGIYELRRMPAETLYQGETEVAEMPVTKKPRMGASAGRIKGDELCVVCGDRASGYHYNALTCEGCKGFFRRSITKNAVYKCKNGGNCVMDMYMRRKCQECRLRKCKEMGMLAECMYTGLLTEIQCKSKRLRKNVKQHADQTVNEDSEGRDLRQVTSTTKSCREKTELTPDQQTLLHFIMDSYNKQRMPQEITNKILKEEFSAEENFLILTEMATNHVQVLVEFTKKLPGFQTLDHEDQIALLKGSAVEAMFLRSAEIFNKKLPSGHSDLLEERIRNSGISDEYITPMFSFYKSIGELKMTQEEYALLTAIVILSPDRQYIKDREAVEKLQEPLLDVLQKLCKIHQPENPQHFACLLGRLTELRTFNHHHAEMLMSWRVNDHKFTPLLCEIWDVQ
T1 sequence (P19793 1-462 partner): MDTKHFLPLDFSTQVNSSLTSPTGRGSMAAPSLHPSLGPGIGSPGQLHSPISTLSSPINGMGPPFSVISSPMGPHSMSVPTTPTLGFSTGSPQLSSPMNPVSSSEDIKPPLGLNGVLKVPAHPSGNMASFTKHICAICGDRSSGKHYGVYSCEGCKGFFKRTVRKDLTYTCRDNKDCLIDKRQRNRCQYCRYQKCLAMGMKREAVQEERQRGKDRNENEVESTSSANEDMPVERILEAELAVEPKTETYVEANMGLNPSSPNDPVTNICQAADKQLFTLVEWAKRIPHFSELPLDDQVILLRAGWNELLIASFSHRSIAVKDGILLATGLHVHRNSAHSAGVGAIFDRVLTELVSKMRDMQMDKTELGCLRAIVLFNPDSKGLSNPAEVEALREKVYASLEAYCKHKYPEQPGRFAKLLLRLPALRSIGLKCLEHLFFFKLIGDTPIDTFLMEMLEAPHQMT
Experimental: Figure 6 Transactivation assays on FXR. (A) HepG2 cells were transfected with pSG5-FXR, pSG5-RXR, pCMV-βgal, and p(hsp27)TKLUC vectors. […] Twenty-four hour post transfection cells were stimulated with increasing concentrations of each agent: range from 100 nM to 10 μM.
To evaluate the transcriptional activity of FXR, HepG2 cells were transiently transfected with Fugene HD reagent (Promega) using the followings plasmids: pCMVSPORT-humanFXR, pSG5RXR, p(hsp27)TKLUC and pGL4.70, a plasmid containing the Renilla gene used for luciferase normalization.

[1] = system: FXR target genes (OSTα, SHP, BSEP); assay: In vivo effect on FXR target genes in mouse liver (Real-Time PCR); set-up: species or system C57BL6 mice; settings: mice, 15 mg/kg ip, 6 h, versus control mice
Experimental: Figure 10 In vivo effect of 10 on FXR target genes. C57BL6 mice were administered with 10 (15 mg/Kg) for 6 h. After treatment liver were removed and the relative mRNA expression of OSTα, SHP and BSEP was assayed by quantitative Real-Time PCR. *p < 0.05 versus control mice.
C57BL6 mice were administered with compound 10 (15 mg/kg, ip). At 6 h post-treatment, livers and blood were collected.
Total RNA was extracted using the TRIzol reagent (Life Technologies). First, 1 μg of RNA was purified of the genomic DNA by DNase I treatment (Life Technologies) and random reverse-transcribed with Superscript II (Life Technologies) in a 20 μL reaction volume. Then 10 ng of cDNA was amplified in a final volume of 20 μL in a mix containing 200 nM of each sense/antisense primers and 10 μL of 2× SYBR Select Master mix (Life Technologies). RT-PCR reactions were performed in duplicate and the thermal cycling conditions were: 2 min at 95 °C, followed by 40 cycles of 95 °C for 20 s, 60 °C for 30 s on Step One Plus Instrument (ABI). The relative mRNA expression was calculated and expressed as 2^−(ΔΔCt). Sense and antisense primer sequences were the following: mouse GAPDH, […] and […]; mOSTα, […] and […]; mBSEP, […] and […]; mSHP, […] and […].

CC[C@H]1[C@@H](O)[C@@H]2[C@H](CC[C@]3(C)[C@@H]([C@H](C)CCC(=O)O)CC[C@@H]23)[C@@]2(C)CCCC[C@@H]12 [compound 10, 6α-ethyl-7α-hydroxy-5β-cholan-24-oic acid]
EC50 (FXR; HepG2 cells transfected with FXR, luciferase reporter, 100 nM to 10 μM): 950 nM
FXR transactivation activity (in words) (FXR; HepG2 cells, compounds at 10 μM, CDCA 10 μM and 6-ECDCA 1 μM as positive controls): potent agonists of FXR
Tauro-conjugated bile acids (tMu, tCA, tHCA, tCDCA, tDCA, tLCA), plasmatic concentration (mice, 15 mg/kg ip, 6 h): unaffected
Blood concentration of 7α-hydroxy-4-cholesten-3-one (mice, 15 mg/kg, indirect measure of CYP7A1 activity): reduced
Form of the compound found in blood (mouse, in vivo, ip, 15 mg/kg): only found in the conjugated form with taurine
Relative mRNA expression of BSEP in liver [1]: significantly up-regulated; also recorded: increased the expression
Relative mRNA expression of OSTα in liver [1]: significantly up-regulated; also recorded: increased the expression
Relative mRNA expression of SHP in liver [1]: significantly up-regulated; also recorded: increased the expression
